This passage reports IC50 results from patent US20250163043A1 (TRANSTHERA SCIENCES (NANJING), INC., priority 2021, published 2025).

The structures appear in SMILES notation.

Sequence of CDK9/CycT1 (P50750 whole entry): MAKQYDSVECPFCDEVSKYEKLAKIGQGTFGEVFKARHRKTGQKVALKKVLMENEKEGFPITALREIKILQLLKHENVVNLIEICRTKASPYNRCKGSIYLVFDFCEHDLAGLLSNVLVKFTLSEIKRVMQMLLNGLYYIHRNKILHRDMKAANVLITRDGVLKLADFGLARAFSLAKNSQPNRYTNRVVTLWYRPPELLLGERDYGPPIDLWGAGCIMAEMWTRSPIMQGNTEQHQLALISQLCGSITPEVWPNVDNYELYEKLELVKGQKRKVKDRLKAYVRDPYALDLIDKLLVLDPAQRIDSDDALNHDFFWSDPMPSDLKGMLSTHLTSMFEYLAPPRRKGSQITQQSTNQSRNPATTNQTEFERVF
Sequence of CDK9/CycT1 (O60563 whole entry partner): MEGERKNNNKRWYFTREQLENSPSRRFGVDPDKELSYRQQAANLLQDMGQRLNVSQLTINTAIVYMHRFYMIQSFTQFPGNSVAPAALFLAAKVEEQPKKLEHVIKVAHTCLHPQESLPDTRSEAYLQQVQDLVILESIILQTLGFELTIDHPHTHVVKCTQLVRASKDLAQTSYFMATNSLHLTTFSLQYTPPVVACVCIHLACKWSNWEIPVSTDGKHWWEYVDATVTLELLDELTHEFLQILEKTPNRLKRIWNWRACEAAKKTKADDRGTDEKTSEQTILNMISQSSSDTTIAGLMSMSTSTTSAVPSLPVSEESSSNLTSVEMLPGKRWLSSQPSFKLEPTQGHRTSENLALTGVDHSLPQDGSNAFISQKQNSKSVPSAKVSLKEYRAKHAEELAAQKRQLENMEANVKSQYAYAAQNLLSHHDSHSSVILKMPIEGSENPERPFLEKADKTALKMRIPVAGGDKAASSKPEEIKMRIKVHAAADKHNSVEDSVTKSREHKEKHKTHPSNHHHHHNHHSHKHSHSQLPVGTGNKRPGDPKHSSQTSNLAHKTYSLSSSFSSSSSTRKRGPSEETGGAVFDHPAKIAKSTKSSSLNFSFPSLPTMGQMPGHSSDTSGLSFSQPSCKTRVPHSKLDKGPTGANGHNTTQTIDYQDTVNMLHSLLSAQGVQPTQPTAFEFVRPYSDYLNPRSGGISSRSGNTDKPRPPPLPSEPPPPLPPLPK

For the assay, the target named is CDK9/CycT1 (Homo sapiens, UniProt P50750). The assay can be described thus: ADP-Glo kinase assay on CDK enzymatic activity, CDK9/CycT1. Type of assay: biochemical. The conditions noted are these: 10 concentrations from 10 μM, 4-fold, 60 min room temperature. The source says:
Test samples: the compounds of the present invention, having structures shown above.
ADP-Glo Kinase Assay (ADP-Glo kinase kit), DMSO (dimethyl sulfoxide), CDK9/CycT1 (cyclin-dependent kinase 9/cyclin T1), CDK tide (cyclin-dependent kinase substrate peptide fragments), CDK1/CycE1 (cyclin-dependent kinase 1/cyclin E1), CDK2/CycA2 (cyclin-dependent kinase 2/cyclin A2), CDK3/CycE1 (cyclin-dependent kinase 3/cyclin E1), CDK4/CycD3 (cyclin-dependent kinase 4/cyclin D3), CDK5/p25NCK (cyclin-dependent kinase 5/p25), and AZD 4573.
A 384-well white plate, a 96-well plate, a microplate oscillator, a centrifuge, and a microplate reader.
The compounds were dissolved in DMSO and diluted 4-fold in the 96-well plate to obtain stock solutions with 10 concentration gradients, and added into a 384-well plate system to obtain a series of 10 concentration gradients of compound solutions with final concentrations of 10 μM starting and 4-fold gradient decreasing. 1 μM AZD4573 was used as compound positive control (PC) and 0.5% DMSO as solvent vehicle control (VC), ten duplicated wells each for PC and VC.
1 μL of compound solution and 2 μL of 2× kinase solution were transferred to each well, and the plate was centrifuged at 1000 g for 30 s and left at room temperature for 10 min. A mixture of 2× substrate and ATP was prepared in 1× kinase buffer. The reaction was started after adding 2 μL of substrate and ATP into the plate. The plate was centrifuged at 1000 g for 30 s. The assay plate was closed and left at room temperature for 60 min. The reaction system was added with 4 μL of ADP Glo reagent, centrifuged at 1000 rpm for 1 min, and incubated at room temperature for 40 min. The reaction system was added with 8 μL of kinase assay reagent, centrifuged at 1000 rpm for 1 min and incubated at room temperature for 40 min. The […] was read on Biotek.
The inhibition rate was calculated according to the following formula: […]
Lumcmpd: compound fluorescence reading; Lumpositive: average value of the fluorescence reading of positive compound control; Lumvehicle: average value of the fluorescence reading of solvent vehicle control.
IC50 values were fitted using GraphPad 7.0 based on inhibition rates of compounds at different concentrations.
On to `CC(C)Nc1nc(C(F)F)c(C#N)c2cnc(N[C@H]3CCCNC3)nc12` [Compound 111, (S)-6-(difluoromethyl)-8-(isopropylamino)-2-(piperidin-3-ylamino)pyrido[3,4-d]pyrimidine-5-carbonitrile], for which the IC50 was determined as 69 nM.
With `CC(C)Nc1nc(C#N)cc2cnc(NC3CCS(=O)(=O)CC3)nc12` [Compound 120, 2-((1,1-dioxidotetrahydro-2H-thiopyran-4-yl)amino)-8-(isopropylamino)pyrido[3,4-d]pyrimidine-6-carbonitrile], the IC50 came out at 32 nM.
For `CC(C)Nc1nc(C#N)cc2cnc(N[C@@H]3CCNC3=O)nc12` [Compound 124, (R)-8-(isopropylamino)-2-((2-oxopyrrolidin-3-yl)amino)pyrido[3,4-d]pyrimidine-6-carbonitrile], the IC50 worked out at 26 nM.
In the case of `N#Cc1cc2cnc(N[C@H]3CCCNC3)cc2c(O[C@H]2CCOC2)n1` [Compound 155, 7-(((S)-piperidin-3-yl)amino)-1-(((S)-tetrahydrofuran-3-yl)oxy)-2,6-naphthyridine-3-carbonitrile], 33 nM corresponded to half-maximal inhibition (IC50).
In the case of `CC(C)Nc1nc(C#N)cc2cnc(N[C@H]3CCCC[C@@H]3O)cc12` [Compound 156, 7-(((1S,2S)-2-hydroxycyclohexyl)amino)-1-(isopropylamino)-2,6-naphthyridine-3-carbonitrile], the midpoint of inhibition, the IC50, lay at 14 nM.
The molecule `CC(C)Nc1nc(C#N)cc2cnc(N[C@@H]3CCCC[C@H]3O)cc12` [Compound 159, 7-(((1R,2R)-2-hydroxycyclohexyl)amino)-1-(isopropylamino)-2,6-naphthyridine-3-carbonitrile] came in with an IC50 of 22 nM.
As to `CC(C)Nc1nc(C#N)cc2cnc(N[C@H]3CCCC[C@H]3O)cc12` [Compound 160, 7-(((1S,2R)-2-hydroxycyclohexyl)amino)-1-(isopropylamino)-2,6-naphthyridine-3-carbonitrile], inhibition was half-maximal at 26 nM (IC50).
In turn, `CC(C)Nc1nc(C#N)cc2cnc(N[C@@H]3CCCC[C@@H]3O)cc12` [Compound 161, 7-(((1R,2S)-2-hydroxycyclohexyl)amino)-1-(isopropylamino)-2,6-naphthyridine-3-carbonitrile] registered an IC50 of 14 nM.
`CC(C)Nc1nc(C#N)cc2cnc(N[C@@H]3CCC[C@H]3N)cc12` [Compound 165, 7-(((1R,2R)-2-aminocyclopentyl)amino)-1-(isopropylamino)-2,6-naphthyridine-3-carbonitrile] gave an IC50 of 47 nM. This IC50 lies about 3.4-fold higher than the previous one.
As for `N#Cc1cc2cnc(N[C@H]3C[C@@H](O)C3)cc2c(N[C@@H]2CCOC2)n1` [Compound 176, 7-(((1s,3S)-3-hydroxycyclobutyl)amino)-1-(((R)-tetrahydrofuran-3-yl)amino)-2,6-naphthyridine-3-carbonitrile], the figure is 3 nM.
`N#Cc1cc2cnc(N[C@H]3CCCNC3)cc2c(NC2COC2)n1` [Compound 182, (S)-1-(oxetan-3-ylamino)-7-(piperidin-3-ylamino)-2,6-naphthyridine-3-carbonitrile] returned an IC50 of 15 nM.
As for `CCC(CC)c1nc(C#N)cc2cnc(N[C@H]3CCCNC3)cc12` [Compound 188, (S)-1-(pentan-3-yl)-7-(piperidin-3-ylamino)-2,6-naphthyridine-3-carbonitrile], the figure is 10 nM; as for `CSc1nc(C#N)cc2cnc(N[C@H]3CCCNC3)cc12` [Compound 192, (S)-1-(methylthio)-7-(piperidin-3-ylamino)-2,6-naphthyridine-3-carbonitrile], 11 nM; as for `CCOc1nc(C#N)cc2cnc(N[C@H]3CCCNC3)cc12` [Compound 198, (S)-1-ethoxy-7-(piperidin-3-ylamino)-2,6-naphthyridine-3-carbonitrile], 12 nM.
The figure for `N#Cc1cc2cnc(N[C@H]3CCCNC3)cc2c(OC2CCC2)n1` [Compound 199, (S)-1-cyclobutoxy-7-(piperidin-3-ylamino)-2,6-naphthyridine-3-carbonitrile] is 4 nM.
The molecule `CC(C)(C)Nc1nc(C(F)F)cc2cnc(N[C@H]3C[C@@H](N)C3)cc12` [Compound 203, N^7-((1s,3s)-3-aminocyclobutyl)-N^1-(tert-butyl)-3-(difluoromethyl)-2,6-naphthyridine-1,7-diamine] displayed an IC50 of 1 nM.
As for `CC(C)Nc1nc(C#N)cc2cnc(NC3CCN(CC(=O)N(C)C)CC3)nc12` [Compound C3, 2-(4-((6-cyano-8-(isopropylamino)pyrido[3,4-d]pyrimidin-2-yl)amino)piperidin-1-yl)-N,N-dimethylacetamide], the figure is 27 nM; as for `CC(C)Nc1nc(C#N)cc2cnc(N[C@H]3C[C@](C)(O)C3)nc12` [Compound C11, 2-(((1r,3r)-3-hydroxy-3-methylcyclobutyl)amino)-8-(isopropylamino)pyrido[3,4-d]pyrimidine-6-carbonitrile], 1 nM; as for `CO[C@H]1C[C@H](Nc2ncc3cc(C#N)nc(NC(C)C)c3n2)C1` [Compound C12, 8-(isopropylamino)-2-(((1r,3r)-3-methoxycyclobutyl)amino)pyrido[3,4-d]pyrimidine-6-carbonitrile], 2 nM.
As for `CC(C)Nc1nc(C#N)cc2cnc(N[C@H]3C[C@@H](CN)C3)nc12` [Compound C17, 2-(((1s,3s)-3-(aminomethyl)cyclobutyl)amino)-8-(isopropylamino)pyrido[3,4-d]pyrimidine-6-carbonitrile], the figure is 2 nM; as for `CC(C)Nc1nc(C#N)cc2cnc(N[C@H]3C[C@H](N4CCOCC4)C3)nc12` [Compound C21, 8-(isopropylamino)-2-(((1r,3r)-3-morpholinocyclobutyl)amino)pyrido[3,4-d]pyrimidine-6-carbonitrile], 4 nM; as for `CC(=O)N1CCN([C@H]2C[C@H](Nc3ncc4cc(C#N)nc(NC(C)C)c4n3)C2)CC1` [Compound C32, 2-(((1r,3r)-3-(4-acetylpiperazin-1-yl)cyclobutyl)amino)-8-(isopropylamino)pyrido[3,4-d]pyrimidine-6-carbonitrile], 4 nM.
`CC(C)(C)Nc1nc(C#N)cc2cnc(N[C@H]3C[C@](C)(N)C3)nc12` [Compound C34, 2-(((1r,3r)-3-amino-3-methylcyclobutyl)amino)-8-(tert-butylamino)pyrido[3,4-d]pyrimidine-6-carbonitrile] showed an IC50 of 1 nM.
The figure for `CC(C)Nc1nc(C#N)cc2cnc(N[C@H]3C[C@@]4(CCN4)C3)nc12` [Compound C37, 2-(((4r,6s)-1-azaspiro[3.3]heptan-6-yl)amino)-8-(isopropylamino)pyrido[3,4-d]pyrimidine-6-carbonitrile] is 2 nM; for `CCNc1nc(C#N)cc2cnc(N[C@H]3C[C@](C)(N)C3)nc12` [Compound C38, 2-(((1r,3r)-3-amino-3-methylcyclobutyl)amino)-8-(ethylamino)pyrido[3,4-d]pyrimidine-6-carbonitrile] it is 1 nM; for `N#Cc1cc2cnc(N[C@H]3C[C@H](N)C3)nc2c(N[C@@H]2CCCOC2)n1` [Compound C39, 2-(((1r,3R)-3-aminocyclobutyl)amino)-8-(((R)-tetrahydro-2H-pyran-3-yl)amino)pyrido[3,4-d]pyrimidine-6-carbonitrile] it is 1 nM.
Turning to `CN(C)[C@H]1CC[C@H](Nc2ncc3cc(C#N)nc(N[C@@H]4CCOC4)c3n2)CC1` [Compound C40, 2-(((1r,4R)-4-(dimethylamino)cyclohexyl)amino)-8-(((R)-tetrahydrofuran-3-yl)amino)pyrido[3,4-d]pyrimidine-6-carbonitrile], half-maximal inhibition (IC50) was put at 5 nM.
As for `COC[C@H](C)Nc1nc(C#N)cc2cnc(N[C@H]3C[C@H](N)C3)nc12` [Compound C42, 2-(((1r,3S)-3-aminocyclobutyl)amino)-8-(((S)-1-methoxypropan-2-yl)amino)pyrido[3,4-d]pyrimidine-6-carbonitrile], the figure is 2 nM; as for `CCNc1nc(C#N)cc2cnc(N[C@H]3C[C@H](NC)C3)nc12` [Compound C43, 8-(ethylamino)-2-(((1r,3r)-3-(methylamino)cyclobutyl)amino)pyrido[3,4-d]pyrimidine-6-carbonitrile], 1 nM.
Regarding `CC(C)Nc1nc(C#N)cc2cnc(N[C@@H]3CCCNC3)nc12` [Compound C44, (R)-8-(isopropylamino)-2-(piperidin-3-ylamino)pyrido[3,4-d]pyrimidine-6-carbonitrile], the midpoint of inhibition, the IC50, lay at 20 nM.
With `CCOc1nc(C#N)cc2cnc(N[C@H]3C[C@H](N)C3)nc12` [Compound C47, 2-(((1r,3r)-3-aminocyclobutyl)amino)-8-ethoxypyrido[3,4-d]pyrimidine-6-carbonitrile], the IC50 was 24 nM.
